Laboratory results taken from publication PMC8745486, “Removal of Persistent Sulfamethoxazole and Carbamazepine from Water by Horseradish Peroxidase Encapsulated into Poly(Vinyl Chloride) Electrospun Fibers” (International Journal of Molecular Sciences, 2021).
Counter-ions that a name gives are not always drawn.

System: T1, horseradish peroxidase (HRP)
T1 construct: gene PRXC1A
Settings: read-out: Free HRP; free enzyme; pH 7, 25 °C; 0.1 to 5 mM ABTS; H2O2 not stated for the kinetic assay

- Km: 1540 ± 130 µM
Structure (SMILES): CCn1c(=NN=c2sc3cc(S(=O)(=O)O)ccc3n2CC)sc2cc(S(=O)(=O)O)ccc21 [ABTS, 2,2′-azino-bis(3-ehylbenzothiazoline-6-sulfonic acid) diammonium salt]
